Legend:
[1] = molecular target: T1, LYP (Homo sapiens, UniProt Q9Y2R2); assay type: biochemical
T1 sequence (Q9Y2R2 1-303): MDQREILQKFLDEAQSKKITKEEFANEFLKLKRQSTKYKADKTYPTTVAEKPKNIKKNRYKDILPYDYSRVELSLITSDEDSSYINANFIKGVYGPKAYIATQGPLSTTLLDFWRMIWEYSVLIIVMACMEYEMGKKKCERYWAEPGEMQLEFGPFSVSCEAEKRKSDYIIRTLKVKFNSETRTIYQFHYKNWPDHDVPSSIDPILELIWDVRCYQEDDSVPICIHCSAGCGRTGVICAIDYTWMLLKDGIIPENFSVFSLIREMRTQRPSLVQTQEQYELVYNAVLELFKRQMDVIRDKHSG

[2] = system: BMMC; experiment: NF-AT luciferase reporter gene analysis in BMMC; assay type: cell-based, mouse
[3] = system: mice; experiment: Passive systemic anaphylaxis; assay type: in vivo, mouse; details: PEP+/+ mice, 8b (20 µM) IP 1 h before DNP-HSA i.v., vs untreated groups
[4] = system: JTAg cells; experiment: CD69 surface expression on JTAg cells; details: […] µM, 4.5 hours at 37°C, resting JTAg cells; DMSO MFI=451
[5] = system: double-positive (DP) thymocytes; experiment: CD69 surface expression on mouse thymocytes; details: […] µM, […] at 37°C, thymocytes from Nur77GFP mice; DMSO MFI=381
[6] = system: JTAg cells; experiment: Phospho-flow cytometry of ZAP-70; details: […] µM, 30 min pre-incubation, C305 stimulation 2 min, vs DMSO
[7] = system: double-positive (DP) thymocytes; experiment: Nur77 expression; details: […] µM, […] at 37°C, thymocytes from Nur77GFP mice; DMSO MFI=604
[8] = system: BMMC; experiment: Mast cell degranulation

| Structure (SMILES) | improvement of LYP inhibitory potency compared to Core 1 [1] | basal and antigen-mediated NF-AT luciferase activity ([2]; PEP+/+ BMMC, C28 5 µM, 8b 5 and 20 µM for 1 h, DNP-HSA 8 h) | residual NF-AT activity ([2]; PEP−/− BMMC) | susceptibility to passive systemic anaphylaxis (change in body temperature) [3] | CD69 expression, median fluorescence intensity (MFI) [4] | CD69 expression, MFI [5] | basal and TCR-stimulated phosphorylation of ZAP-70 on Tyr319 [6] | Nur77 expression by GFP cell fluorescence, MFI [7] | antigen-stimulated degranulation (release of β-hexosaminidase) ([8]; PEP+/+ BMMC, C28 5 µM, 8b 5 and 20 µM for 1 h, DNP-HSA 200 ng/ml) | residual degranulation ([8]; PEP−/− BMMC) |
| --- | --- | --- | --- | --- | --- | --- | --- | --- | --- | --- |
| O=C(O)c1cc2c(C#Cc3cccc(Cl)c3)c(-c3ccccc3)oc2cc1O [Compound 4c] | 50 fold | – | – | – | – | – | – | – | – | – |
| O=C(O)c1cc2c(C#Cc3ccc(Oc4ccccc4)cc3)c(-c3ccccc3)oc2cc1O [Compound 4i] | 50 fold | – | – | – | – | – | – | – | – | – |
| O=C(COc1ccc(-c2oc3cc(O)c(C(=O)O)cc3c2C#Cc2cccc(Cl)c2)cc1)NC1CC1 [Compound 8b, 3-((3-Chlorophenyl)ethynyl)-2-(4-(2-(cyclopropylamino)-2-oxoethoxy)phenyl)-6-hydroxybenzofuran-5-carboxylic Acid] | – | dose dependent down-regulation | No significant effect | less susceptible to PSA | 616 | 758 | increased | 1120 | down-regulated | Neither compunds affected residual degranulation |

Source: publication PMC3711248 (Journal of medicinal chemistry, 2013)
